How the values were obtained:
[1] = Bioavailability after administration by inhalation as powder inhalant; settings: in vivo, inhaled or intranasal; administered by inhalation as powder inhalant; based on the fine content of the formulation (FPD, USP 24 Suppl. 2000)
[2] = conventional formulations; cited from earlier work

- bioavailability [1]: ~60%
Compound: NCCCC[C@H](NC(=O)[C@@H](Cc1cc(Br)c(O)c(Br)c1)NC(=O)N1CCC(N2Cc3ccccc3NC2=O)CC1)C(=O)N1CCN(c2ccncc2)CC1 [A, 1-[N^2-[3,5-dibromo-N-[[4-(3,4-dihydro-2(1H)-oxoquinazolin-3-yl)-1-piperidinyl]carbonyl]-D-tyrosyl]-L-lysyl]-4-(4-pyridinyl)-piperazine]
- oral bioavailability [2]: very limited
